From publication PMC5368057, “Structural, thermodynamic, and phosphatidylinositol 3‐phosphate binding properties of Phafin2” (Protein Science : A Publication of the Protein Society, 2017)

Biological target: T1, Phafin2 (Homo sapiens, UniProt Q9H8W4)
T1 construct: gene PLEKHF2; full length (PH and FYVE domains; C-terminal tryptic peptide 224-249), pGEX4T3 GST fusion, GST removed by thrombin; N-terminus Gly-Ser-Met-Val-Asp (Gly-Ser from vector); E. coli Rosetta; 27,941 Da; monomer
T1 sequence (Q9H8W4 1-249): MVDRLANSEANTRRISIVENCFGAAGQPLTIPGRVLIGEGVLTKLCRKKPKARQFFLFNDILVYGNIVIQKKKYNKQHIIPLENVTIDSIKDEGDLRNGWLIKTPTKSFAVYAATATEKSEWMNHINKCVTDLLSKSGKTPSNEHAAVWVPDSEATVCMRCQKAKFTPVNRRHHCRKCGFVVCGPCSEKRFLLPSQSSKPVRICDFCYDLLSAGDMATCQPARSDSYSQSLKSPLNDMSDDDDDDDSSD
Assay: SPR, liposomes on L1 chip, two-state conformational change fit
Assay type: binding
Conditions: 1.5% lipid in phosphatidylcholine (DOPC) liposomes, control liposomes without it; liposome buffer 20 mM HEPES pH 7.0, 100 mM NaCl; room temperature; apparent

- Kd: 285 ± 80 nM
Structure (SMILES): CCCCCCCCCCCCCCCC(=O)OC[C@H](COP(=O)(O)O[C@@H]1[C@H](O)[C@H](OP(=O)(O)O)[C@@H](O)[C@H](O)[C@H]1O)OC(=O)CCCCCCCCCCCCCCC [dipalmitoyl PtdIns(3)P]
